From patent publication US20140066365A1, “USE OF CALIXARENES ASSOCIATED WITH AN ANTIBIOTIC IN THE TREATMENT OF BACTERIAL INFECTIONS” (priority 2011, published 2014)
≈ marks a conversion by molar mass, not a printed value. Like-named read-outs stand apart in the source and are kept apart here. Values belong to the molecule of their own block, whether it stands above or below them.

What was measured:
Type in all cases: cell-based
[1] = system: SaR1: Meticillin-Resistant Staphylococcus aureus without Associated Resistance; experiment: Antibiogram, inhibition diameter (Table D1)
Method: (§1) The bacterial and antibiogramidentification is carried out by the VITEK 2 system (bioMérieux)

[2] = system: SaR4: Meticillin-Resistant Staphylococcus aureus; experiment: Antibiogram, MIC by the VITEK 2 system; settings: SaR4; for MIC: Staphylococcus aureus, read-out: MIC
Method: (§2) The bacterial and antibiogramidentification is carried out by the VITEK 2 system (bioMérieux) and by the disk diffusion technique

[3] = system: SaR3: Meticillin-Resistant Staphylococcus aureus; experiment: Antibiogram by the disk diffusion technique; settings: for Diameter: Table E1; for diameter in mm: Table E2
Method: as §2

[4] = system: ESBL-producing strain of Escherichia coli, having an associated resistance to the aminoglycosides (EcR3); experiment: MIC of the compounds used alone, microdilution in a liquid medium (CLSI); settings: Escherichia coli, antibiotic alone (second value of cell), read-out: Initial MICs
Excerpt: (§3) The MICs of the antibiotics were previously defined for each strain, by the method of microdilution in a liquid medium (CLSI (Clinical and Laboratory Standards Institute), 2003).

[5] = system: cephalosporinase-hyperproducing strain of Escherichia coli (EcR2); experiment: as above; settings: Escherichia coli, antibiotic alone (second value of cell), read-out: Initial MICs
Excerpt: as §3

[6] = system: penicillinase-producing strain of Escherichia coli without associated resistance (EcR1); experiment: as above; settings: Escherichia coli, antibiotic alone (second value of cell), read-out: Initial MICs
Excerpt: as §3

[7] = system: Escherichia coli strain ATCC 25922 (wild type); experiment: as above; settings: Escherichia coli, ATCC25922; antibiotic alone (second value of cell); E. coli ATCC 25922; read-out: Initial MICs
Excerpt: as §3

[8] = system: SaR1: Meticillin-Resistant Staphylococcus aureus without Associated Resistance; experiment: Antibiogram, MIC by the VITEK 2 system; settings: SaR1; for MIC mg/L: Table D2; for MIC: Staphylococcus aureus, Table D1, read-out: MIC
Method: as §1

[9] = system: SaR4: Meticillin-Resistant Staphylococcus aureus; experiment: Antibiogram by the disk diffusion technique
Method: as §2

[10] = system: PaR3: Pseudomonas aeruginosa; experiment: Antibiogram, MIC by the VITEK 2 system
Method: as §1

[11] = system: EcR3: ESBL-Producing Escherichia coli; experiment: Antibiogram by the disk diffusion technique; settings: for Diameter: Table C1; for diameter in mm: Table C2
Method: The bacterial and antibiogramidentification is carried out by the VITEK 2 system (bioMerieux) and by the disk diffusion technique

[12] = system: EcR1: Penicillinase-Producing Escherichia coli without Associated Resistance; experiment: Antibiogram by the disk diffusion technique; settings: for Diameter: EcR1, disk diffusion
Method: (§4) 5.1 EcR1: Penicillinase-Producing Escherichia coli without Associated Resistance The bacterial and antibiogramidentification is carried out by the VITEK 2 system (bioMérieux) and by the disk diffusion technique.

[13] = system: PaR5: Pseudomonas aeruginosa; experiment: Antibiogram by the disk diffusion technique; settings: for diameter in mm: disk diffusion inhibition diameter, strain PaR5
Method: as §2

[14] = system: PaR2: Pseudomonas aeruginosa; settings: for Diameter: Table G1; for diameter in mm: Table G2
Method: as §2

[15] = system: EcR2: Cephalosporinase-Hyperproducing Strain of Escherichia coli; experiment: Antibiogram by the disk diffusion technique; settings: Table B1
Method: (§5) The bacterial and antibiogramidentification is carried out by the VITEK 1 system (bioMérieux) and by the disk diffusion technique

[16] = system: EcR1: Penicillinase-Producing Escherichia coli without Associated Resistance; experiment: Antibiogram, MIC by the VITEK 2 system; settings: for MIC: Escherichia coli
Method: as §4

[17] = system: EcR2: Cephalosporinase-Hyperproducing Strain of Escherichia coli; experiment: Antibiogram, MIC by the VITEK 1 system; settings: for MIC: Escherichia coli, read-out: MIC
Method: as §5

SMILES: O=C(N[C@H](CO)[C@H](O)c1ccc([N+](=O)[O-])cc1)C(Cl)Cl [Chloramphenicol]
Diameter [1]: 25 mm
Results ([1]; from diameter, against Dmin Dmax): Susceptible
Results ([2]; Table F1, MIC): Susceptible
MIC ([2]; Table F1): 8 µg/mL (≈ 24.8 µM)
Diameter [3]: 6 mm
Results ([3]; Table E1, against Dmin Dmax): Resistant

SMILES: C[C@@H](O)[C@H]1C(=O)N2C(C(=O)O)=C(S[C@@H]3CN[C@H](C(=O)Nc4cccc(C(=O)O)c4)C3)[C@H](C)[C@H]12 [Ertapenem]
MIC [4]: 0.0015 µg/mL
MIC [5]: 0.03 µg/mL
MIC [6]: 0.015 µg/mL
MIC [7]: 0.015 µg/mL

SMILES: CN(C)c1ccc(O)c2c1C[C@H]1C[C@H]3[C@H](N(C)C)C(O)=C(C(N)=O)C(=O)[C@@]3(O)C(O)=C1C2=O [Minocycline]
Diameter [1]: 27 mm
MIC mg/L [8]: ≦0.5 mg/L
MIC [8]: ≤ 0.5 µg/mL
MIC ([10]; Pseudomonas aeruginosa, Table H2, read-out: MIC): 4 µg/mL (≈ 8.74 µM)
MIC ([10]; Table H1): 4 µg/mL (≈ 8.74 µM)
Diameter [11]: 21 mm
diameter in mm [11]: 21 mm
MIC ([2]; Table F1): ≤ 4 µg/mL
MIC ([2]; Table F2, MIC): ≤ 0.5 µg/mL
MIC mg/L (diameter in mm) ([12]; EcR1, cells that print a diameter, Table A2): 20 mm
Diameter ([12]; Table A1): 20 mm
Diameter ([13]; PaR5, Table I1): 11 mm
diameter in mm [13]: 11 mm
Diameter [3]: 26 mm
diameter in mm [3]: 26 mm
Diameter [14]: 6 mm
diameter in mm [14]: 6 mm

Second part, led by results:

MIC mg/L [8]: ≦4 mg/L
MIC [8]: ≤ 4 µg/mL
SMILES: NC[C@H]1O[C@H](O[C@H]2[C@H](O)[C@@H](O[C@H]3O[C@H](CO)[C@@H](O)[C@H](N)[C@H]3O)[C@H](N)C[C@@H]2N)[C@H](O)[C@@H](O)[C@@H]1O [Kanamycin]
Diameter [1]: 20 mm
Diameter ([9]; Table F1): 7
Diameter ([9]; Table F2, diameters): 7 mm
Diameter [3]: 6 mm
diameter in mm [3]: 6 mm

MIC ([16]; EcR1, Table A2, read-out: MIC mg/L (diameter in mm)): ≤ 1 mg/L
MIC ([16]; EcR1, VITEK 2, Table A1, read-out: MIC): ≤ 1 mg/L
MIC ([17]; EcR2, VITEK 1, Table B1): ≤ 1 µg/mL
MIC ([17]; EcR2, Table B2, MIC): ≤ 1 µg/mL
SMILES: CCN[C@@H]1C[C@H](N)[C@@H](O[C@H]2OC(CN)=CC[C@H]2N)[C@H](O)[C@H]1O[C@H]1OC[C@](C)(O)[C@H](NC)[C@H]1O [Netilmicin]
Diameter ([15]; EcR2, disk diffusion): 21
Results ([15]; EcR2, rows that print a diameter): Susceptible
CA-SFM Interpretation ([11]; Cd CA-SFM 2011): Resistant
CLSI Interpretation ([11]; Cd CLSI 2011): Resistant
EUCAST Interpretation ([11]; Cd EUCAST 2011): Resistant
Diameter [11]: 10 mm
Results ([11]; Table C1, against Dmin Dmax): Resistant
diameter in mm [11]: 10 mm
CA-SFM Interpretation ([16]; EcR1, MIC against Cc CA-SFM 2011): Susceptible
CLSI Interpretation ([16]; EcR1, MIC against Cc CLSI 2011): Susceptible
EUCAST Interpretation ([16]; EcR1, MIC against Cc EUCAST 2011): Susceptible
Results ([16]; EcR1, interpretation of the MIC, Table A1): Susceptible
Diameter ([12]; Table A1): 24 mm
Results ([12]; EcR1, interpretation of the diameter against Dmin Dmax, Table A1): Susceptible
Diameter ([13]; PaR5, Table I1): 28 mm
Results ([13]; PaR5, Table I1, against Dmin-Dmax): Susceptible
diameter in mm [13]: 28 mm
CA-SFM Interpretation ([13]; disk diffusion, PaR5, versus critical diameter CA-SFM 2011): Susceptible
CLSI Interpretation ([13]; disk diffusion, PaR5, versus critical diameter CLSI 2011): Susceptible
EUCAST Interpretation ([13]; disk diffusion, PaR5, versus critical diameter EUCAST 2011, for ** antibiotics the disk load differs and the EUCAST interpretation is not applicable): Susceptible
CA-SFM Interpretation ([14]; Cd CA-SFM 2011): Susceptible
CLSI Interpretation ([14]; Cd CLSI 2011): Susceptible
EUCAST Interpretation ([14]; Cd EUCAST 2011): Susceptible
Diameter [14]: 19 mm
Results ([14]; Table G1, against Dmin-Dmax): Susceptible
diameter in mm [14]: 19 mm
CA-SFM Interpretation ([17]; EcR2, from MIC, Cc CA-SFM 2011): Susceptible
CLSI Interpretation ([17]; EcR2, from MIC, Cc CLSI 2011): Susceptible
EUCAST Interpretation ([17]; EcR2, from MIC, Cc EUCAST 2011): Susceptible
